Consider nine compounds from PMC4411102 (PLoS ONE, 2015).

No end group written: not given here.

In one data set the test system is CXCR4. The note with it: cited from earlier work.
The next data set relates to CCR5. Set-up: method as in PMID 20721836. The note with it: cited from earlier work.
Another data set has as its system vaginal mucosa. The note with it: cited from earlier work. From the text: Its activity is directed more towards the virus than to host cells. Some of the known anti-HIV peptides such as defensins have better selectivity index, but many of such peptides/molecules act as a double edged-sword. These peptides inhibit HIV infection but also lead to inflammation and/or potentiate pathogen invasion.

In the next data set the test system is HIV. The note with it: cited from earlier work. From the text: HIV-1 infection can be targeted at various stages, for example, viral entry, viral replication or assembly of viral components. HIV entry into the host cells is facilitated by binding of viral envelope glycoprotein (gp120) to host CD4 receptor [3, 4]. CD4-gp120 interaction initiates a cascade of events that stimulates gp41 to promote viral and host membrane fusion. Inhibition of gp120-CD4 interaction or virus-host cell fusion thus appears to be an attractive strategy to prevent HIV-1 infection. Towards this, significant advances have been made. […] Moreover, some of the AMPs cause adverse effects on vaginal commensals like lactobacilli which are required to maintain low pH in vaginal mucosa.

In a further data set the test system is HIV-host cell fusion. The note with it: cited from earlier work.
For the next data set, the system named is gp120 of HIV-1 IIIB. In words: Binding ELISA, gp120 of HIV-1 IIIB. The note with it: for Binding of designed peptides to gp120: peptide-coated plate, 500ng gp120, 2 hrs at 37°C, 492nm (S1 Fig). On the procedure:
(§1) After blocking with 3% bovine serum albumin (BSA) in PBS for 30 min, 100 μl of gp120 (100ng/well) in PBS-0.05% BSA was added to each well and incubated for 2 hrs at 37°C. After three washings with PBS-Tween-20 (PBS-T), cells were incubated with anti-gp120 antibody at 1:200 dilution and then with horse radish peroxidase-(HRP) conjugated secondary goat anti-human antibody (1:10000 dilution) for 1 hr at 37°C. This was followed by incubation with O-phenylenediamine for 20 min. The absorbance was measured at 492 nm on a microplate ELISA reader (ELx-800, Bio-Tek Instruments, USA). Background values obtained in the wells without HbAHP-25 were subtracted from the absorbance values from wells having all other reagents.
Supplementary file pone.0124839.s001.tif: S1 Fig Binding of designed peptides to gp120. Peptides that were designed in silico were evaluated for their binding to gp120 of HIV-1 IIIB. Peptides were coated on 96 well microtiter plate for 16 hrs and then incubated with 500ng of gp120 for 2 hrs at 37°C. This was followed by addition of anti-gp120 antibody, and absorbance was read at 492nm. Background absorbance was subtracted from the wells where peptides were not coated. […] (TIF) Click here for additional data file.
(ELISA stands for enzyme-linked immunosorbent assay.)

The subject of a further data set is gp120 of HIV-1 BaL. The data set can be described thus: Binding ELISA, gp120 of HIV-1 BaL. The note with it: 2.2–71.40 μM coated, gp120 100ng/well. How it is done: as §1
For the next data set, the system named is HIV-1 IIIB and ADA5. In words: Time-of-addition assay in TZM-bl cells. The note with it: 71.40 μM.
The next data set deals with HIV-1 IIIB. In words: Anti-HIV activity, p24 antigen assay in H9 cells. In kind it is cell-based. Set-up: key to Anti-HIV activity: +: moderate; ++: significant; NA: No activity. The note with it: for Anti-HIV activity (in words): 0.1 MoI HIV-1 IIIB pre-incubated with peptide, H9 cells, p24 on day 4. How it is done:
Supplementary file pone.0124839.s002.tif: S2 Fig Anti-HIV activity of 3 designed peptides. Anti HIV activity of three peptides was determined using H9 cells. H9 cells were infected for 4 hrs with 0.1 MoI of HIV-1 IIIB pre-incubated with various concentrations of peptides. Peptides were added post infection as well. Supernatant was collected on day 4 post infection, and p24 antigen assay was performed. […] (TIF) Click here for additional data file.
Supplementary file pone.0124839.s003.tif: S3 Fig Anti-HIV activity of peptide analogues of peptide 1. After modifying the peptide 1, we performed anti-HIV assay as earlier. HIV-1 IIIB was pre-incubated with peptide analogues for 1 hr and then added to H9 cells for 4 hrs. Levels of p24 levels were determined on day 4 post infection. […] (TIF) Click here for additional data file.

Description for HIV-1 IIIB and ADA5: Luciferase activity was measured at 48 hrs post treatment using Luminometer (ELx-800, Bio-Tek Instruments, USA). VRC01 (0.1 μM) antibody was used as a positive control.

Consider `c1cc(CN2CCCNCCNCCCNCC2)ccc1CN1CCCNCCNCCCNCC1` [AMD3100], for which the CXCR4 antagonism result with CXCR4 is “CXCR4 antagonists”.

Consider `CCCCOCCOc1ccc(-c2ccc3c(c2)/C=C(/C(=O)Nc2ccc([S@@+]([O-])Cc4cncn4CCC)cc2)CCCN3CC(C)C)cc1` [Cencriviroc], for which the CCR5 antagonism entry in the data set on CCR5 is recorded as “CCR5 antagonists”.

`CCCCCCCCCc1ccc(OCCOCCOCCOCCOCCOCCOCCOCCOCCO)cc1` [Nonoxynol-9]: the “Effects on vaginal mucosa” value in the data set on vaginal mucosa was “caused detrimental effects on vaginal mucosa”.

Consider Enfuvirtide, for which, in the data set on HIV, the “Alleviation of HIV infections” value is recorded as “alleviate HIV infections effectively”. Further, the “Resistance on long term treatment” value in the data set on HIV (mutations in gp41) is given as “leads to resistance”. Further, in the data set with HIV-host cell fusion, the “Effect on HIV-host cell fusion” value is recorded as “interfere with the HIV-host cell fusion”.

As to “PLVKDVLRSLCNHAHKCVTLALLRH [Scrambled peptide(sP)]”, in the data set with gp120 of HIV-1 IIIB (ELISA, 2.2–71.40 μM coated, gp120 100ng/well), the “Binding to recombinant gp120 of HIV-1 IIIB” value is reported as “did not bind”. In addition, the “Binding to recombinant gp120 of HIV-1 BaL” value in the data set on gp120 of HIV-1 BaL is given as “did not bind”. Further, in the data set on HIV-1 IIIB and ADA5, the “Inhibition (scrambled control)” value is given as “no inhibition”.

Take “SAQVKGHGKKVADALTNAVAHVDDMPNAL [Peptide-2, Hb-α subunit derived 29-residue peptide (52–80)]”: the “Anti-HIV activity (in words)” value in the data set on HIV-1 IIIB (listed as peptide 2) was “failed to demonstrate any activity”; in the data set on HIV-1 IIIB (listed as peptide-2), “did not show any anti-HIV-1 activity”. Moreover, the “Binding of designed peptides to gp120” value with gp120 of HIV-1 IIIB is “failed to show any binding”.

Consider “VKGHGKKVADALTNAVAHVDDMPNALSAL [Peptide-3, Hb-α subunit derived 29-residue peptide (55–83)]”, for which, in the data set with HIV-1 IIIB, the “Anti-HIV activity (in words)” value is “showed anti-HIV activity”. Besides, the Anti-HIV activity result in the data set with HIV-1 IIIB (class symbols of Table 1, HIV-1 IIIB in H9 cells, p24 (S2, S3 Fig)) is recorded as “+”. The “Binding of designed peptides to gp120” value in the data set with gp120 of HIV-1 IIIB was “showed binding to gp120 of HIV-1 IIIB”.

On to “human defensin-6: antimicrobial peptide, printed as human defensin-5 and 6 (AFTCHCRRSCYSTEYSYGTCTVMGINHRFCCL; ends and bridges not checked; cysteine pairing not given here; UniProt Q01524 69-100, looked up)”, for which, in the data set on HIV, the “Effect on HIV infection” value was “exacerbate HIV infection”.

For the compound “indolicidin: natural antimicrobial peptide (ILPWKWPWWPWRR; not fully specified (C-terminus); ends and bridges not checked; UniProt P33046 131-143, looked up)”, in the data set with HIV, the Anti-HIV activity entry is given as “reported to have anti-HIV activity”.
